Test results as given in ChEMBL document CHEMBL4184340, “Fragment-Based Discovery of a Potent, Orally Bioavailable Inhibitor That Modulates the Phosphorylation and Catalytic Activity of ERK1/2” (J Med Chem, 2018).

Tests used:
[1] = in vivo; conditions: Balb/c, mouse, iv, 0.5 mg/kg
[2] = in vivo; conditions: Balb/c, mouse, po, 5 mg/kg
[3] = in vitro; conditions: human, Caco-2
[4] = in vivo; conditions: Balb/c, mouse, iv, 0.5 mg/kg; remark: listed apart in the source
[5] = in vivo; conditions: Balb/c, mouse, po, 5 mg/kg; remark: listed apart in the source
[6] = in vivo; conditions: Balb/c, mouse, po, 5 mg/kg; remark: listed apart in the source

Row | Compound | clearance at 24 h [1] [mL/min/kg] | half-life at 24 h [2] [h] | Papp at 1 h, 10 µM [3] [×10⁻⁶ cm/s] | Vd at 24 h [4] [L/kg] | bioavailability at 24 h [5] [%] | AUC at 24 h [6] [ng·h/mL]
1 | C[C@H](C(=O)N[C@H](CO)c1ccccc1)N1Cc2ccc(-c3nc(NC4CCOCC4)ncc3Cl)cc2C1=O | 23 | 0.7 | 13 | 1 | 70 | 2600
2 | CN(C(=O)CN1Cc2ccc(-c3nc(NC4CCOCC4)ncc3Cl)cc2C1=O)C(C)(C)C | 4.2 | 0.7 | 22 | 0.1 | 30 | 5900
3 | Cc1cccc([C@@H](CO)NC(=O)[C@@H](C)N2Cc3ccc(-c4nc(NC5CCOCC5)ncc4Cl)cc3C2=O)c1 | 13 | 0.8 | 6.6 | 0.6 | 59 | 3700
4 | O=C(CN1Cc2ccc(-c3nc(NC4CCOCC4)ncc3Cl)cc2C1=O)NCc1ccccc1 | 3.8 | 1 |  | 0.2 | 32 | 6900
5 | O=C1c2cc(-c3nc(NC4CCOCC4)ncc3Cl)ccc2CN1CCN1CCOCC1 | 15 | 2 | 40 | 0.2 | 32 | 1800
6 | CC(C)(C)NC(=O)CN1Cc2ccc(-c3nc(NC4CCOCC4)ncc3Cl)cc2C1=O | 14 | 1 | 17 | 0.2 | 8 | 530
7 | COCCN1Cc2ccc(-c3nc(NC4CCOCC4)ncc3Cl)cc2C1=O | 17 | 1 | 19 | 0.05 | 1 | 50
8 | O=C(CN1Cc2ccc(-c3nc(NC4CCOCC4)ncc3Cl)cc2C1=O)NC(CO)c1ccccc1 (single isomer, unassigned) | 11 | 3 | 0.7 | 0.6 | 41 | 3000
